Assay results taken from patent US20250351832A1, “PHYTOCHEMICALS AS BIOPESTICIDES AND BIOSTIMULANTS” (KAY BEE BIO ORGANICS PVT. LTD., priority 2024, published 2025).
Like-named read-outs stand apart in the source and are kept apart here.

What was measured:
Alternaria alternata [1] = experiment: In vitro poisoned food technique against fungus (Ex. 20); type: cell-based; details: poisoned food technique, PDA medium, dose 1 ml/gm/lit., after seven days; for inhibition of growth at 1 mL or g/L: vs untreated control, read-out: % Inhibition of growth
Spodoptera litura [2] = details: Spodoptera litura on castor leaves; dose 1 ml/gm/lit.; 10 insects/treatment; 72 hrs after application
chili seedlings = experiment: Response of chili plants, greenhouse growth (Ex. 31); type: in vivo; details: chili seedlings, dose 1 ml/gm/lit; for CCI 5th Day / Plant Height (cm) 5th Day: 5th day after application; for CCI 10th Day / Plant Height (cm) 10th Day: 10th day after application; for CCI % Increase over pre on 10th Day / Plant Height % Increase over pre on 10th Day / Root Lenght (cm) 10th Day / Stem Girth % Increase over pre on 10th Day / Root Lenght % Increase over control: 10th day; for Root Lenght % Increase over control: vs water control
[3] = cited from earlier work; for Phytotonic Effect: Table 13, effect on plants, descriptive
Mite [4] = details: Dose 1 ml/gm/lit.; for Total No. of dead insect at 48 Hrs.: 10 insects/treatment, 4 replications, okra leaves
Aphid [5] = details: Dose 1 ml/gm/lit.; for Total No. of dead insect at 48 Hrs.: 10 insects/treatment, 4 replications, cotton leaves
Aphid [6] = details: Aphids on cotton plants, green house; dose 1 ml/gm/lit.; 10 insects/plant, 10 plants/treatment; 48 hrs
Thrips [7] = experiment: whole plant or invertebrate; details: in Gossypium hirsutum, 48 h
Thrips [8] = details: thrips on cotton plants, greenhouse, dose 1 ml/gm/lit. spray; for % Mortality at 48 Hrs. / Total No. of dead insect at 48 Hrs.: 48 hrs after application; for % Corrected Mortality at 48 Hrs.: corrected for water control
Thrips [9] = details: Thrips on cotton leaves; dose 1 ml/gm/lit.; 10 insects/treatment; 48 hrs after application
Spodoptera litura [10] = details: Spodoptera litura 3rd instar on cabbage plants, dose 1 ml/gm/lit. spray; for % Mortality at 72 Hrs.: 72 hrs after application; for % Corrected Mortality at 72 Hrs.: corrected for water control
Aphid [11] = experiment: whole plant or invertebrate; details: 48 h
tomato seedlings = experiment: Response of tomato plants, greenhouse growth (Ex. 30); type: in vivo; details: tomato seedlings, dose 1 ml/gm/lit; for Plant Height 5th Day / Stem Girth 5th Day / CCI 5th Day: 5th day after application; for Plant Height 10th Day / Stem Girth 10th Day / CCI 10th Day: 10th day after application; for Plant Height % Increase over pre on 10th Day / Stem Girth % Increase over pre on 10th Day / CCI % Increase over pre on 10th Day / Root Length (cm) 10th Day / Root Length % Increase over control: 10th day; for Root Length % Increase over control: vs water control
Helicoverpa armigera [12] = details: Helicoverpa armigera 3rd instar on chickpea plants, dose 1 ml/gm/lit. spray; for % Mortality at 72 Hrs.: 72 hrs after application; for % Corrected Mortality at 72 Hrs.: corrected for water control
Alternaria alternata [13] = experiment: Alternaria leaf spot/blight on inoculated tomato plants (Ex. 28); type: in vivo; details: tomato plants, Alternaria alternata; after 7 days; dose 1 ml/gm/lit
Mite [14] = details: mite on okra plants, green house, dose 1 ml/gm/lit. spray; for % Mortality at 48 Hrs. / Total No. of dead insect at 48 Hrs.: 48 hrs after application; for % Corrected Mortality at 48 Hrs.: corrected for water control
Mealy Bug [15] = details: mealy bug on cotton plants, green house, dose 1 ml/gm/lit. spray; for % Mortality at 48 Hrs. / Total No. of dead insect at 48 Hrs.: 48 hrs after application; for % Corrected Mortality at 48 Hrs.: corrected for water control
Mealy Bug [16] = details: Mealy Bug on cotton leaves, dose 1 ml/gm/lit., 48 Hrs.; for Total No. of dead insect at 48 Hrs.: 10 insects/treatment, 4 replications; for % Corrected Mortality at 48 Hrs.: corrected for water control
Spodoptera litura [17] = experiment: whole plant or invertebrate; details: 72 h
Helicoverpa armigera [18] = details: Helicoverpa armigera on okra fruits, dose 1 ml/gm/lit., 72 Hrs.; for Total No. of dead insect at 72 Hrs.: 10 insects/treatment, 4 replications; for % Corrected Mortality at 72 Hrs.: corrected for water control
[19] = Table 13, descriptive, no test described
[20] = read-out: % Corrected Mortality at 48 Hrs.
[21] = read-out: % Mortality at 48 Hrs.
[22] = read-out: % Corrected Mortality at 72 Hrs.
[23] = read-out: % Mortality at 72 Hrs.

O=c1oc2c(O)c(O)cc3c(=O)oc4c(O)c(O)cc1c4c23 [Ellagic acid]
Mean colony Diameter (mm) (Alternaria alternata [1]): 44.00 mm | inhibition of growth at 1 mL or g/L (Alternaria alternata [1]): 50% | Total No. of dead insect at 72 Hrs. (Spodoptera litura [2]): 6.00 | CCI 5th Day (chili seedlings): 16.35 | Plant Height (cm) 5th Day (chili seedlings): 5.77 cm | CCI % Increase over pre on 10th Day (chili seedlings): 67.49% | Plant Height % Increase over pre on 10th Day (chili seedlings): 62.60% | Root Lenght (cm) 10th Day (chili seedlings): 3.92 cm | Stem Girth % Increase over pre on 10th Day (chili seedlings): 51.20% | CCI 10th Day (chili seedlings): 16.95 | Plant Height (cm) 10th Day (chili seedlings): 6 cm | Root Lenght % Increase over control (chili seedlings): 43.41% | Acaricidal Activity - Mode of action [3, 19]: Shows acaricidal activities | Antifungal Activity - Mode of action [3, 19]: Fungicidal activities | Antioxidant Activity - Mode of action [3, 19]: Exhibit antioxidant | Bactericidal Activity - Mode of action [3, 19]: Exhibits bactericidal | Insecticidal Activities - Mode of action [3, 19]: Inhibit the growth, food | Phytotonic Effect [3]: Reduces plant | Total No. of dead insect at 48 Hrs. (Mite [4]): 5.00 | % Corrected Mortality at 48 Hrs. (Mite [4]; 48 hrs): 45.95% | Total No. of dead insect at 48 Hrs. (Aphid [5]): 7.25 | % Corrected Mortality at 48 Hrs. (Aphid [5]; 48 hrs): 68.57% | % Mortality at 48 Hrs. (Aphid [5]; 48 hrs): 72.50% | Total No. of dead insect at 48 Hrs. (Aphid [6]): 75.00 | mortality at 1 mL or g/L (Thrips [7]; [20]): 25.7% | mortality at 1 mL or g/L (Thrips [7]; [21]): 35% | % Mortality at 48 Hrs. (Thrips [8]): 32.50% | Total No. of dead insect at 48 Hrs. (Thrips [8]): 32.50 | % Corrected Mortality at 48 Hrs. (Thrips [8]): 25.00% | Total No. of dead insect at 48 Hrs. (Thrips [9]): 3.50 | % Mortality at 72 Hrs. (Spodoptera litura [10]): 55.00% | % Corrected Mortality at 72 Hrs. (Spodoptera litura [10]): 52.63% | mortality at 1 mL or g/L (Aphid [11]; [20]): 70.6% | mortality at 1 mL or g/L (Aphid [11]; [21]): 75% | Plant Height 5th Day (tomato seedlings): 7.09 cm | Stem Girth 5th Day (tomato seedlings): 1.54 mm | Plant Height 10th Day (tomato seedlings): 8.18 cm | Stem Girth 10th Day (tomato seedlings): 2.19 mm | Plant Height % Increase over pre on 10th Day (tomato seedlings): 36.11% | Stem Girth % Increase over pre on 10th Day (tomato seedlings): 62.87% | CCI 5th Day (tomato seedlings): 13.39 | CCI % Increase over pre on 10th Day (tomato seedlings): 28.96% | Root Length (cm) 10th Day (tomato seedlings): 4.48 cm | CCI 10th Day (tomato seedlings): 14.56 | Root Length % Increase over control (tomato seedlings): 34.64% | % Mortality at 72 Hrs. (Helicoverpa armigera [12]): 70.00% | % Corrected Mortality at 72 Hrs. (Helicoverpa armigera [12]): 70.00% | % Disease reduction over Control (Alternaria alternata [13]): 66.12% | % Mortality at 48 Hrs. (Mite [14]): 52.50% | Total No. of dead insect at 48 Hrs. (Mite [14]): 52.50 | % Corrected Mortality at 48 Hrs. (Mite [14]): 50.00% | % Mortality at 48 Hrs. (Mealy Bug [15]): 57.50% | Total No. of dead insect at 48 Hrs. (Mealy Bug [15]): 57.50 | % Corrected Mortality at 48 Hrs. (Mealy Bug [15]): 52.78% | Total No. of dead insect at 48 Hrs. (Mealy Bug [16]): 6.00 | % Mortality at 48 Hrs. (Mealy Bug [16]): 60.00% | % Corrected Mortality at 48 Hrs. (Mealy Bug [16]): 57.89% | mortality at 1 mL or g/L (Spodoptera litura [17]; [22]): 57.9% | mortality at 1 mL or g/L (Spodoptera litura [17]; [23]): 60% | Total No. of dead insect at 72 Hrs. (Helicoverpa armigera [18]): 7.25 | % Mortality at 72 Hrs. (Helicoverpa armigera [18]): 72.50% | % Corrected Mortality at 72 Hrs. (Helicoverpa armigera [18]): 72.50%

CCCCCCCCCC(C)=O [Embodiment 2-undecanone, 2-undecanone]
Mean colony Diameter (mm) (Alternaria alternata [1]): 52.00 mm | inhibition of growth at 1 mL or g/L (Alternaria alternata [1]): 40.9% | Total No. of dead insect at 72 Hrs. (Spodoptera litura [2]): 4.00 | CCI 5th Day (chili seedlings): 13.57 | Plant Height (cm) 5th Day (chili seedlings): 5.97 cm | CCI % Increase over pre on 10th Day (chili seedlings): 70.42% | Plant Height % Increase over pre on 10th Day (chili seedlings): 68.11% | Root Lenght (cm) 10th Day (chili seedlings): 4.44 cm | Stem Girth % Increase over pre on 10th Day (chili seedlings): 60.61% | CCI 10th Day (chili seedlings): 15.15 | Plant Height (cm) 10th Day (chili seedlings): 6.59 cm | Root Lenght % Increase over control (chili seedlings): 62.21% | Antifungal Activity - Mode of action [3, 19]: Antifungal and repellent | Bactericidal Activity - Mode of action [3, 19]: Moderate anti-bacterial | Insecticidal Activities - Mode of action [3, 19]: Insecticidal action, | Phytotonic Effect [3]: Increasing root | Total No. of dead insect at 48 Hrs. (Mite [4]): 3.00 | % Corrected Mortality at 48 Hrs. (Mite [4]; 48 hrs): 24.32% | % Mortality at 48 Hrs. (Mite [4]; 48 hrs): 30.00% | Total No. of dead insect at 48 Hrs. (Aphid [5]): 6.75 | % Corrected Mortality at 48 Hrs. (Aphid [5]; 48 hrs): 62.86% | Total No. of dead insect at 48 Hrs. (Aphid [6]): 67.50 | mortality at 1 mL or g/L (Thrips [7]; [20]): 42.9% | mortality at 1 mL or g/L (Thrips [7]; [21]): 50% | % Mortality at 48 Hrs. (Thrips [8]): 47.50% | Total No. of dead insect at 48 Hrs. (Thrips [8]): 47.50 | % Corrected Mortality at 48 Hrs. (Thrips [8]): 41.67% | Total No. of dead insect at 48 Hrs. (Thrips [9]): 5.00 | % Mortality at 72 Hrs. (Spodoptera litura [10]): 42.50% | % Corrected Mortality at 72 Hrs. (Spodoptera litura [10]): 39.47% | mortality at 1 mL or g/L (Aphid [11]; [20]): 61.8% | mortality at 1 mL or g/L (Aphid [11]; [21]): 67.5% | Plant Height 5th Day (tomato seedlings): 6.48 cm | Stem Girth 5th Day (tomato seedlings): 1.61 mm | Plant Height 10th Day (tomato seedlings): 7.56 cm | Stem Girth 10th Day (tomato seedlings): 2.40 mm | Plant Height % Increase over pre on 10th Day (tomato seedlings): 40.52% | Stem Girth % Increase over pre on 10th Day (tomato seedlings): 68.29% | CCI 5th Day (tomato seedlings): 13.42 | CCI % Increase over pre on 10th Day (tomato seedlings): 30.95% | Root Length (cm) 10th Day (tomato seedlings): 4.54 cm | CCI 10th Day (tomato seedlings): 15.23 | Root Length % Increase over control (tomato seedlings): 36.48% | % Mortality at 72 Hrs. (Helicoverpa armigera [12]): 52.50% | % Corrected Mortality at 72 Hrs. (Helicoverpa armigera [12]): 52.50% | % Disease reduction over Control (Alternaria alternata [13]): 58.68% | % Mortality at 48 Hrs. (Mite [14]): 27.50% | Total No. of dead insect at 48 Hrs. (Mite [14]): 27.50 | % Corrected Mortality at 48 Hrs. (Mite [14]): 23.68% | % Mortality at 48 Hrs. (Mealy Bug [15]): 57.50% | Total No. of dead insect at 48 Hrs. (Mealy Bug [15]): 57.50 | % Corrected Mortality at 48 Hrs. (Mealy Bug [15]): 52.78% | Total No. of dead insect at 48 Hrs. (Mealy Bug [16]): 5.50 | % Mortality at 48 Hrs. (Mealy Bug [16]): 55.00% | % Corrected Mortality at 48 Hrs. (Mealy Bug [16]): 52.63% | mortality at 1 mL or g/L (Spodoptera litura [17]; [22]): 36.8% | mortality at 1 mL or g/L (Spodoptera litura [17]; [23]): 40% | Total No. of dead insect at 72 Hrs. (Helicoverpa armigera [18]): 5.50 | % Mortality at 72 Hrs. (Helicoverpa armigera [18]): 55.00% | % Corrected Mortality at 72 Hrs. (Helicoverpa armigera [18]): 55.00%
